According to patent publication US10632324B2, “Method for the treatment of skin tissues” (9127-4910 Quebec Inc., priority 2017, dated 2020):

How the values were obtained:
Assay type in all cases: in vivo, human
cystic acne [1] = experiment: Split face/back pre-PDT radiant IR study, 10 cystic acne patients (Example 8); details: for decrease in the number of cystic lesions: one month after PDT
Method: (§1) In summary, ten patients were enrolled in a split face or split back (pre-treated side versus control) study with a pre-approved IRB protocol. […] Lesion count was assessed both manually and by digital photography before and 4 weeks after one PDT procedure. Prior to the application of 5-ALA, one side of the face or back was pre-treated with radiant IR [CW LEDs emitting @λ 970 nm, irradiance 50 mW/cm2 for 15 minutes, total fluence 45 J/cm2], while the other half was used as control. PDT was then performed on the entire surface (face or back) using 5-ALA in a conventional manner.
Patients were assigned to a split face or split back group. One side was pre-treated for 15 minutes with radiant IR [CW LEDs emitting @λ 970 nm, irradiance 50 mW/cm^2, total fluence 45 J/cm^2] to obtain a temperature of about 42 Celsius, while the other side was used as control. ALA was then applied after which PDT was performed on the entire face or back surface. Lesion count was assessed manually and by digital photography, before and 4 weeks after the PDT procedure. Exclusion criteria were: current use of the following medications: (Prednisone), anticoagulant therapy, drugs known to cause photo-sensitivity reactions. In addition, during 12 months preceding the study, subjects are required not to take Accutane (isotretinoin); use of corticosteroids on the treated area within 2 weeks of first treatment; use of topical tretinoin (like Retisol-A, Retin-A, Vitamin A acid, Retin-A micro) for at least 1 month prior to enrollment; yanned skin around or on the area to be treated: the back. previous laser of medicated treatment at the treatment site (to be studied) and for the duration of the study; presence of any known diseases among vitiligo, psoriasis, severe eczema, poor skin healing. active infection, immunosuppression, coagulation problem, peripheral arterial disease, hematologic abnormalities, vasculitis, and previous history of epilepsy; pregnancy; alcohol or drug abuse before and during the study.
After the pre-treatment with IR radiation, 5-ALA was applied onto slightly abraded skin and left to incubate for 60 minutes on both IR-pre-treated and control sides. Then, the 5-ALA treated regions were irradiated with a LED source of red light (wavelength of […], in accordance to standard therapy, until a mild to moderate erythema appeared. Immediately afterwards, the 5-ALA treated regions were irradiated with a LED source of blue light (wavelength of 405 nm, power density 30 mW/cm^2) in continuous wave mode for 3 min.

[2] = tested on: facial papulo-pustular inflammatory acne lesions; experiment: Split-face radiant IR skin preparation prior to PDT, inflammatory acne of the face (Example 6)
Method: A person was treated for facial papulo-pustular inflammatory acne lesions. After performing an acetone scrub on the treatment area, a radiant IR skin preparation was done on the right side of their face (970 nm, 80 mW/cm2, for 30 min). Then 5-aminolevulinic acid (Levulan™ Kerastick™) was applied to the skin and left for 90 min incubation time. […] Radiant IR skin preparation allows for a reduction in the number of PDT treatments necessary for significant clinical improvements.

cystic acne [3] = experiment: Split face/back pre-PDT radiant IR study, 11 cystic acne patients (Example 7); details: IR 970 nm 50 mW/cm2 15 min before 5-ALA; one month after PDT; most patients
Method: as §1, with “Study Design/Materials and Methods: Eleven (11)” for “In summary, ten”, “back).” for “back) using 5-ALA in a conventional manner.”

[4] = tested on: transformation of 5-aminolevulinic acid to protoporphyrin IX (PpIX); experiment: FluoDerm fluorescence after 940 nm photopreparation 24, 48, 72 h before 5-ALA, 4 subjects (Example 12)
Method: To obtain greater statistical power and investigate even longer term effects, the above study was repeated on other subjects. Below, the results or comparison between the D50 and CW protocols are shown for 4 subjects. Irradiation was performed in accordance with the pattern of FIG. 44, with measurements taken 24, 48 and 72 hours after pre-treatment with D50 and CW, instead of 8-14, 24-29 and 50-53.
More specifically, delineated treatment areas were drawn on each subject's back. These spaces had to be close enough together to enable simultaneous irradiation downstream in the experiment. Areas of each patient's back were then irradiated according to the predetermined photopreparation treatment parameter at the appropriate pre-5-ALA application and activation time. In this study, two light pulsing options were compared—pulsed versus continuous. Both options were set at 940 nm. The time set between the photopreparation treatment and the 5-ALA application was the other variable tested. […] Following the appropriately timed photopreparation treatment of the correct back skin area, 20% 5-aminolevulinic acid (Levulan Kerastick, Dusa, Wilmington, USA) was applied to the patient's back. After the topical application, an incubation time of 3 hours was set to optimize the transformation of the medication to protoporphyrin IX (PpIX). Finally, using the Fluoroderm device, the fluorescence of each subject's back areas was measured. The recorded data was statistically analyzed.
Besides the 20% 5-aminolevulinic acid (Levulan Kerastick, Dusa, Wilmington, USA) used as the photosensitizer and the FluoDerm (Dia-Medico, Denmark) to quantify the fluorescence of each patient's back, a prototype able to irradiate the back skin areas with pulsed (D50 pulsing condition) and continuous wavelength (CW) light at 940 nm was built. This machine was assembled at RoseLab Skin Optics Research Laboratory (Montreal, Canada). The D50-940 nm condition was made up of 940 nm light with a pulsing pattern consisting of a 50% duty cycle delivered in the repeating pattern (in μseconds where PD, PI, and PTI mean pulse duration, pulse interval, and pulse train interval, respectively) of: PD 500 on, PI 150 off, PD 500 on, PI 150 off, PD 500 on and PTI 1550 off (FIG. 3). The irradiance delivered for all conditions (D50 and CW) was 75 mW/cm^2 and the fluence delivered for all conditions was 67.5 J/cm^2 (940 nm LED treatment duration D50=30 min and CW=15 min).
The FluoDerm measured each tested condition. These measurements were then compared to the control (only 5-ALA without photopreparation). The means of these proportional changes were calculated. The final results were categorized by every photopreparation condition (72, 48 and 24 hours pre-treatment). A 95% confidence interval was calculated for each mean.
The data is analyzed and presented as X-fold changes (or differences) as compared to the just 5-ALA control below. Higher number show a higher effect of pre-treatment with IR radiation.

NCC(=O)CCC(=O)O [5-ALA, 5-aminolevulinic acid]
decrease in the number of cystic lesions (cystic acne [1]; IR pre-treated side (970 nm, 50 mW/cm2, 15 min)): 72.5% | mean+/-standard error number of lesions after treatment (cystic acne [1]; IR treated site, baseline 49.7+/-13.7): 12.0+/−2.3 | treatment-related adverse effects (cystic acne [1]; both sides): No treatment-related adverse effects were reported | decrease in the number of cystic lesions (cystic acne [1]; control side (no IR)): 47.1% | mean+/-standard error number of lesions after treatment (cystic acne [1]; control side, baseline 35.9+/-8.3): 16.3+/−3 | lesion number reduction ([2]; IR treated side (970 nm, 80 mW/cm2, 30 min), 90 min incubation, one treatment): 60-70% | clinical outcome of side without IR ([2]; untreated (no IR) side, PDT alone): needed an additional PDT session to achieve similar results | number of cystic lesions, pre-treated versus control side (cystic acne [3]): statistically significant decrease in the number of cystic lesions | X-fold change of fluorescence as compared to the just 5-ALA control, Mean ([4]; 24 hours pre-treatment, CW-940, 75 mW/cm2, 67.5 J/cm2): 1.18 fold | X-fold change of fluorescence as compared to the just 5-ALA control, Mean ([4]; 24 hours pre-treatment, D50-940, 75 mW/cm2, 67.5 J/cm2): 1.27 fold | X-fold change of fluorescence as compared to the just 5-ALA control, Mean ([4]; 48 hours pre-treatment, CW-940, 75 mW/cm2, 67.5 J/cm2): 1.34 fold | X-fold change of fluorescence as compared to the just 5-ALA control, Mean ([4]; 48 hours pre-treatment, D50-940, 75 mW/cm2, 67.5 J/cm2): 1.08 fold | X-fold change of fluorescence as compared to the just 5-ALA control, Mean ([4]; 72 hours pre-treatment, CW-940, 75 mW/cm2, 67.5 J/cm2): 1.05 fold | X-fold change of fluorescence as compared to the just 5-ALA control, Mean ([4]; 72 hours pre-treatment, D50-940, 75 mW/cm2, 67.5 J/cm2): 0.94 fold
